Measurements published in patent US6855348B2, “Insecticidal composition derived from plants” (priority 2000, dated 2005).
Values joined by “and” are separate entries in the source; they are usually repeats but may differ in a detail not shown here. Equal entries are not always repeated. Where two headings read alike, the source gives them in different places.

Key:
Dermatophagoides farinae = system: Dermatophagoides farinae
Procedure: (§1) American house dust mite (Dermatophagoides farinae) and European house dust mite (Dermatophagoide pteronyssinus) were maintained at 75±5% RH (relative humidity) at 25±1° C., and were provided a feed mixture of fish meal and multi-vitamins in a ratio of 1 to 1 on a 12.5×10.5×5 cm container.
(§2) The starting concentration is important for the primary screening of bioactive compounds from plant extracts and oils. […] 1 mg of the methanol extracts or oils were suspended with 40 μl of methanol and were transferred to a colorless microtube (2 ml). The microtube was vertically shaken several times to disperse the contents to the wall and cap of the microtube and it was placed in a freeze dryer for 1 hour in order to volatilize the solvent. Twenty-five mites were placed on the prepared microtube, and all treatment groups were transferred to an incubator kept at […]. Active mites only were selected with a fine brush under a microscope. Mortalities were determined with a microscope at 24 hours and 48 hours after treatment. […] All tests were replicated four or more times. The percentage mortality was determined and transformed to arcsine square-root values for analysis of variance (ANOVA). Treatment means were compared and separated by Scheffe's test at the P=0.05 (SAS Institute, 1996). Means (±standard error) of untransformed data are reported. Controls received 40 μl of methanol.

[1] = system: Dermatophagoides pteronyssinus
Procedure: as §1, §2

Lasioderma serricorne = experiment: Insecticidal activity test, treated filter paper in petri dish; type: in vivo; settings: adults, 24 hours
Procedure: (§3) Stored-product pests used in the present invention were adult Lasioderma serricome Fab., adult Sitophilus oryzae L. and adult Callosobruchus chinensis L., and it was selected insects were not exposed to any insecticide. L. serricorne was bred in a beaker(10 cm diameter, 15 cm height) with wheat bran, S. oryzae was bred in a platic container(20×20×15 cm) with peanuts, and was bred in a plastic container(26×30×20 cm) with red beans. All insects were maintained at 28±1° C., 55±5% RH(relative humidity) and 16:8 hr(day:night) light condition.
(§4) Right after treatment, paper was transferred to hood and put in hood for about 2 minutes to completely evaporate solvent, and then, the above paper was put on paper treated with 20 adult pests in petri dish and this dish was covered with a lid. 24 hours after insecticide activity was investigated. To faacilitate handling of adult pests by their reducing activity, L. sericorne was put at −4° C. for 2 minutes, S. oryzae was used without this treatment, and C. chinensis was selected by using sucking tube. Healthy pests used in test were selected right before 6 hours of test. They were maintained at 28±1° C., 50-60% RH and 16:8 hr(day:night) light condition.
(§5) Insecticidal activity of salicylaldehyde against stored-product pests was investigated by the insecticidal test of Test 6. Test was repeated 25 times for adult S. oryzae, and 10 times for adult L. serricorne and adult C. chinensis. 10 adult pests were used for each test.

Sitophilus oryzae = experiment: as above; type: in vivo, Sitophilus oryzae L.; settings: adults, 24 hours
Procedure: as §3, §4, §5

Callosobruchus chinensis = experiment: as above; type: in vivo, Callosobruchus chinensis L.; settings: adults, 24 hours
Procedure: as §3, §4, §5

stored-product pests = experiment: Insecticidal activity test, statements not resolved by pest species; type: in vivo; settings: concentration of 1.25 mg
Procedure: as §3, §4

O=Cc1ccccc1O [salicylaldehyde]
Mortality (Means ± standard error, %) (Dermatophagoides farinae; 0.125 mg/tube, 24 hr): 20.0 ± 1.6c % | Mortality (Means ± standard error, %) (Dermatophagoides farinae; 0.125 mg/tube, 48 hr): 27.0 ± 3.8c % | Mortality (Means ± standard error, %) (Dermatophagoides farinae; 0.2 mg/tube, 24 hr): 22.0 ± 1.2c % | Mortality (Means ± standard error, %) (Dermatophagoides farinae; 0.2 mg/tube, 48 hr): 28.0 ± 1.6c % | Mortality (Means ± standard error, %) (Dermatophagoides farinae; 0.25 mg/tube, 24 hr): 26.0 ± 2.0c % | Mortality (Means ± standard error, %) (Dermatophagoides farinae; 0.25 mg/tube, 48 hr): 34.02.6bc % | Mortality (Means ± standard error, %) (Dermatophagoides farinae; 0.3 mg/tube, 24 hr): 27.0 ± 1.9c % | Mortality (Means ± standard error, %) (Dermatophagoides farinae; 0.3 mg/tube, 48 hr): 37.0 ± 1.9bc % | Mortality (Means ± standard error, %) (Dermatophagoides farinae; 0.4 mg/tube, 24 hr): 44.0 ± 2.8b % | Mortality (Means ± standard error, %) (Dermatophagoides farinae; 0.4 mg/tube, 48 hr): 48.0 ± 2.8b % | Mortality (Means ± standard error, %) (Dermatophagoides farinae; 0.5 mg/tube, 24 hr): 99.0% | Mortality (Means ± standard error, %) (Dermatophagoides farinae; 0.5 mg/tube, 48 hr): 100a % | Mortality (Means ± standard error, %) (Dermatophagoides farinae; 1 mg/tube, 24 hr): 100a % | Mortality (Means ± standard error, %) (Dermatophagoides farinae; 1 mg/tube, 48 hr): 100a % | Mortality (Means ± standard error, %) ([1]; 0.125 mg/tube, 24 hr): 0e % | Mortality (Means ± standard error, %) ([1]; 0.125 mg/tube, 48 hr): 0e % | Mortality (Means ± standard error, %) ([1]; 0.2 mg/tube, 24 hr): 6.0 ± 1.1d % | Mortality (Means ± standard error, %) ([1]; 0.2 mg/tube, 48 hr): 9.0 ± 1.0d % | Mortality (Means ± standard error, %) ([1]; 0.25 mg/tube, 24 hr): 7.0 ± 3.0d % | Mortality (Means ± standard error, %) ([1]; 0.25 mg/tube, 48 hr): 8.0 ± 2.8d % | Mortality (Means ± standard error, %) ([1]; 0.3 mg/tube, 24 hr): 22.0 ± 2.6c % | Mortality (Means ± standard error, %) ([1]; 0.3 mg/tube, 48 hr): 27.0 ± 2.5c % | Mortality (Means ± standard error, %) ([1]; 0.4 mg/tube, 24 hr): 44.0 ± 2.8b % | Mortality (Means ± standard error, %) ([1]; 0.4 mg/tube, 48 hr): 46.0 ± 2.6b % | Mortality (Means ± standard error, %) ([1]; 0.5 mg/tube, 24 hr): 89.0% | Mortality (Means ± standard error, %) ([1]; 0.5 mg/tube, 48 hr): 92.0 ± 1.6a % | Mortality (Means ± standard error, %) ([1]; 1 mg/tube, 24 hr): 100a % | Mortality (Means ± standard error, %) ([1]; 1 mg/tube, 48 hr): 100a % | Mortality (Means ± standard error, %) (Lasioderma serricorne; 0.3125 mg/paper): 87% and 86.7 ± 3.3 b % | Mortality (Means ± standard error, %) (Lasioderma serricorne; 0.625 mg/paper): 100% | Mortality (Means ± standard error, %) (Lasioderma serricorne; 1.25 mg/paper): 100 a % | Mortality (Means ± standard error, %) (Lasioderma serricorne; 2.5 mg/paper): 100 a % | Mortality (Means ± standard error, %) (Lasioderma serricorne; 5 mg/paper): 100 a % | Mortality (Means ± standard error, %) (Sitophilus oryzae; 0.3125 mg/paper): 7.0 ± 2.1 b % | Mortality (Means ± standard error, %) (Sitophilus oryzae; 0.625 mg/paper): 97% | Mortality (Means ± standard error, %) (Sitophilus oryzae; 1.25 mg/paper): 100 a % | Mortality (Means ± standard error, %) (Sitophilus oryzae; 2.5 mg/paper): 100 a % | Mortality (Means ± standard error, %) (Sitophilus oryzae; 5 mg/paper): 100 a % | Mortality (Means ± standard error, %) (Callosobruchus chinensis; 0.15625 mg/paper): 68.0 ± 3.9 b % | Mortality (Means ± standard error, %) (Callosobruchus chinensis; 0.3125 mg/paper): 97% | Mortality (Means ± standard error, %) (Callosobruchus chinensis; 0.625 mg/paper): 100% | Mortality (Means ± standard error, %) (Callosobruchus chinensis; 1.25 mg/paper): 100 a % | Mortality (Means ± standard error, %) (Callosobruchus chinensis; 2.5 mg/paper): 100 a % | Mortality (Means ± standard error, %) (Callosobruchus chinensis; 5 mg/paper): 100 a % | insecticidal activity against three species (stored-product pests): 100%
